Test results as given in the NIST ThermoML archive (doi:10.1016/j.fluid.2004.12.004).
Numbers after ± are expanded uncertainties.

Details: 298.15 K; 101.33 kPa; Liquid; Vibrating tube method

SMILES | mass density [kg/m3]
CN(C)C=O [dimethylformamide] | 943.81 ± 0.2
CC1CCCCC1 [methylcyclohexane] | 764.96 ± 0.13
COC(=O)c1ccccc1C(=O)OC [dimethyl 1,2-benzenedicarboxylate] | 1186.9 ± 0.2

Further lines, results first:

mass density [kg/m3] | SMILES
1073.3 ± 0.42 | CC(=O)Oc1ccccc1 [phenyl ethanoate]
805.8 ± 0.2 | CCCCO [butan-1-ol]
894.4 ± 0.6 | CCOC(C)=O [ethyl acetate]
